Measurements published in patent publication US7951831B2, “Use of inhibitors of soluble epoxide hydrolase to synergize activity of COX and 5-LOX inhibitors” (The Regents of the University of California, priority 2005, dated 2011).

Legend:
[1] = target: T1, sEH (Homo sapiens, UniProt P34913); test: inhibition of soluble epoxide hydrolase; format: biochemical
T1 sequence (P34913 1-555): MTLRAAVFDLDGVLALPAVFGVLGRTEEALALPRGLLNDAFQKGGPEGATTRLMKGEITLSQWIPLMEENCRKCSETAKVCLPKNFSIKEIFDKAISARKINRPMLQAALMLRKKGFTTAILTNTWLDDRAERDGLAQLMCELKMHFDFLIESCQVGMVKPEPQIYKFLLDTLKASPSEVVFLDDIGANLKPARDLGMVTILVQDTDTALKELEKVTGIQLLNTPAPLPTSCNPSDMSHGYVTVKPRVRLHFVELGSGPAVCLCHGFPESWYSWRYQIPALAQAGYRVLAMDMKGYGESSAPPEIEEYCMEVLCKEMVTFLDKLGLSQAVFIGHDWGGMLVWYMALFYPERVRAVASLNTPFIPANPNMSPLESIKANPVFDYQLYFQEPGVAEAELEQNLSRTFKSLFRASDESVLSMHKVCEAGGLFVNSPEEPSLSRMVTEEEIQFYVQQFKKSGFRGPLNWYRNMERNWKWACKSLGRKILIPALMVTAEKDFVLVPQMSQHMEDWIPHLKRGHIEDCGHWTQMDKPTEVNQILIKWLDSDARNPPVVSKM
Source text: Any of a number of standard assays for determining epoxide hydrolase activity can be used to determine inhibition of sEH. For example, suitable assays are described in Gill, et al., Anal Biochem 131, 273-282 (1983); and Borhan, et al., Analytical Biochemistry 231, 188-200 (1995)). Suitable in vitro assays are described in Zeldin et al., J Biol. Chem. 268:6402-6407 (1993). Suitable in vivo assays are described in Zeldin et al., Arch Biochem Biophys 330:87-96 (1996). […]
The enzyme also can be detected based on the binding of specific ligands to the catalytic site which either immobilize the enzyme or label it with a probe such as dansyl, fluoracein, luciferase, green fluorescent protein or other reagent. […] The enzyme also can be detected based on the generation of fluorescent products following the hydrolysis of the epoxide. […]

[2] = metabolic stability; format: in vitro ADME
[3] = tail flick assay, without induction of pain; format: in vivo, mice; settings: sc in oleic oil, responses after 90 minutes; no induction of pain
Description: Briefly, mice are kept under 12:12 h light: dark cycle and water and food is supplied ad libitum. Mice are trained for three days to the experimental chambers in 30 min sessions each time. The next day baseline readings are taken. Vehicle control (oleic oil) is then injected sc in the next day and measurements are taken. Two days later, animals are injected through the sc route with test compounds dissolved in the oil vehicle and their responses are recorded after 90 minutes.
Tail flick and hind paw withdrawal latency tests are conducted according to D'Amour and Smith, J Pharmacol Exp Ther 72:74-9 (1941), and Woolfe and McDonald, J Pharmacol Exp Ther, 80:300-7 (1944). In tail flick assays, mice are placed in restrainers and left undisturbed for 30 minutes. Readings are then taken by placing the posterior end of the tail onto a tail flick apparatus that has a radiant heat source set to 55 C. Five measurements per animal are taken at two-minute intervals. The latency to move the tail is recorded. In hind paw withdrawal assays, the mice are placed in an experimental chamber with a glass surface. The temperature of this surface is kept constant at 30° C. After a 30-minute period of acclimation, radiant heat is applied to the plantar surface of the hind paw. Five measurements per animal are taken at two-minute intervals. The latency to move the paw is recorded. […]

[4] = tested on: COX-2 protein; test: Western immunoblot of COX-2 protein in livers of mice; format: in vivo; settings: liver; LPS 10 mg/Kg i.p.; COX-2 inhibitor 50 mg/Kg or AUDA-BE 20 mg/Kg sc (FIG. 8)
Description: Horizontal axis: treatment administered to the mice. First column: vehicle (oleic acid, administered subcutaneously (“s.c.” or “sc”)). Second column: lipopolysaccharide (“LPS”, 10 mg/Kg i.p.) and vehicle. […] Fifth column: AUDA-BE (20 mg/Kg sc). Sixth column: AUDA-BE (20 mg/Kg sc)+LPS (10 mg/Kg i.p.). […] Vertical axis: depicts percentage of protein induced in test animals receiving designated treatment compared to that of control mice receiving vehicle without LPS.
Western immunoblot analysis was performed with proteins isolated from liver to detect cycloxygenase 2 (COX-2). The isolated proteins were separated by electrophoresis on 10% SDS-PAGE and then transferred onto polyvinylidene fluoride membranes (Immobilon P, Millipore Corp., Bedford, Mass.). […] The membranes were incubated with rabbit anti-mouse HRP-linked IgG (Amersham, Arlington Heights, Ill.) at 1:10,000 dilution, washed, then contacted with secondary antibody and visualized using SuperSignal® West Femto Maximum Sensitivity Substrate (Pierce Biotechnology, Inc., Rockford, Ill.), a chemiluminiscence detection system, per manufacturer's instructions. The immunodetectable bands were quantified by densitometry with Kodak 1.D Image Analysis System v.

[5] = tested on: arachidonic acid metabolites in mouse plasma; test: plasma oxylipin metabolites in mice exposed to LPS (LC-MS/MS); format: in vivo; settings: AUDA-BE 20 mg/Kg alone
[6] = tested on: COX-2 / COX-1; settings: the smaller the ratio, the more specific for COX-2; cited from earlier work

With `CCCCCCCCCCCCNC(=O)NC12CC3CC(CC(C3)C1)C2` [ADU, N-Adamantyl-N′-dodecyl urea] the “activity as an inhibitor of sEH” value [1] was “particularly high activity” and the metabolic stability [2] was “metabolically stable”.
With `CCCCOC(=O)CCCCCCCCCCCNC(=O)NC12CC3CC(CC(C3)C1)C2` [AUDA-BE, 12-(3-adamantane-1-yl-ureido)-dodecanoic acid butyl ester] the “analgesic effect in tail flick assay” value [3] was “slight but significant analgesic effect”, the “amount of COX-2 relative to control mice” value [4] was “about 4 times” and the “5-HETE, percentage of metabolite compared to control mice receiving vehicle without LPS” value [5] was 262±21%. For the same compound, the “6-keto-PGF1a, percentage of metabolite compared to control mice receiving vehicle without LPS” value [5] was 128±6%, the “PGE2, percentage of metabolite compared to control mice receiving vehicle without LPS” value [5] was 241±2% and the “ΣDHOME, percentage of metabolite compared to control mice receiving vehicle without LPS” value [5] was 141±15%. For the same compound, the “ΣEpOME, percentage of metabolite compared to control mice receiving vehicle without LPS” value [5] was 122±8%.
For `CC(=O)Oc1ccccc1C(=O)O` [Aspirin, aspirin], the “COX-2 (IC50)/COX-1 (IC50) ratio” value [6] is listed as 0.32.
